# Results published in patent US6558952B1, “Treatment for diabetes” (Waratah Pharmaceuticals, Inc., priority 1992, dated 2003).
# Marks after values point to notes of the source that are not given here.
# Tested on: normal Wistar rats
# Test: Pancreatic insulin content in normal rats treated with TGF-α and gastrin
# Type: in vivo, rat
# Conditions: i.p. 0.8 μg/day each for 10 days, n=5, mean +/− SEM
# Description: Animals. Mice, FVB and CD strain, were obtained from Taconic Farms, Inc., Germantown, N.Y. The TGF-α transgenic line MT-42 used, which expresses high levels of TGF-α from a metallothionein promoter, is described in Jhappan et al, Cell, 61:1137-1146 (1990). Normal Wistar and Zucker rats were allowed normal chow ad libidum with free access to water and were acclimatized for one week prior to initiation of each study. Freshly prepared streptozotocin at a dose of 80 mg/kg body weight was administered by I.V. five to seven days after induction of diabetes, the rats were randomly allocated into groups for subsequent treatment. Hormones, TGF-α and rat gastrin were reconstituted in sterile normal saline containing 0.1% BSA. […]
# At the end of the study period (10 days), all animals were sacrificed and samples of pancreas taken as follows: five biopsy specimens (1-2 mg) of pancreatic tissue were taken from separate representative sites in each rat pancreas and immediately snap frozen in liquid nitrogen for analysis of insulin content. […] Pancreatic insulin content values were corrected according to protein content and finally expressed as μg insulin/mg pancreatic protein. All values calculated as mean +/− SEM and statistical significance evaluated using Student's 2-sample t-test.
substance,measurement,value
"TGF-α: recombinant Human TGF-α, an EGF receptor ligand, reconstituted in sterile saline containing 0.1% BSA",Pancreatic Insulin Content,30.4 +/− 7.4* μg insulin/mg protein
